According to patent US20240082211A1, “SOLUBLE EPOXIDE HYDROLASE AS A TARGET FOR OCULAR DISEASES” (Indiana University Research and Technology Corporation, priority 2017, published 2024):

How the values were obtained:
human sEH = target: T1, human sEH (Homo sapiens, UniProt P34913); assay: sEH enzyme kinetics (PHOME hydrolysis, Michaelis-Menten/Dixon analysis); assay type: biochemical; settings: for type of inhibition of sEH: Lineweaver-Burk and Dixon plots; for Ki: human sEH, PHOME
T1 construct: purchased Cayman Chemical
T1 sequence (P34913 1-555): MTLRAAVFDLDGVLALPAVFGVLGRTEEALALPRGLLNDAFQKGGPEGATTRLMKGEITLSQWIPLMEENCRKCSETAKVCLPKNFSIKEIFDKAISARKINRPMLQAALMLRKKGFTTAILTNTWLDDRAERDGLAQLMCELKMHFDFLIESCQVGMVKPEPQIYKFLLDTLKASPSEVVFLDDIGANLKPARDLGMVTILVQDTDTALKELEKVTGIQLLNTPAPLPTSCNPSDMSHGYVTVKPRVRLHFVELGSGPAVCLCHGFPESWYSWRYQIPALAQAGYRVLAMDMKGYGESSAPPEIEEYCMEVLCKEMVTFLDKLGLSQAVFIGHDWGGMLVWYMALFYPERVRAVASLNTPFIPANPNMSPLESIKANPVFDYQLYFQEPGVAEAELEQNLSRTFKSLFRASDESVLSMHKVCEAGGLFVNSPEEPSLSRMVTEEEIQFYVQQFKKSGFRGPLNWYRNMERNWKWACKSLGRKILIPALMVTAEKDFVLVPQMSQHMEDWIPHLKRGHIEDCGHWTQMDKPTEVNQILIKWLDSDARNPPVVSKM
Method: Various concentrations of compound dissolved in DMSO (final DMSO concentration=5% (v/v)) and human sEH (60 ng/mL final concentration; Cayman Chemical) in 25 mM bis-Tris-HCl buffer containing 0.1% (w/v) BSA were mixed in a 96 well plate. PHOME at indicated concentrations was added to the wells to initiate the reaction and fluorescence was read with an excitation wavelength of 330 nm and emission wavelength of 465 nm. The standard curve plotted from dilutions of the product, 6-methoxy-2-naphthaldehyde, was used to convert fluorescence reading (RFU/min) to sEH activity (nmol product formed/min). The reaction rate was obtained from the slope of the line from time=5 to 15 minutes for each substrate concentration, and analyzed using GraphPad Prism 7 and SigmaPlot 13.0 to determine Michaelis-Menten kinetic parameters.

[1] = target: T2, sEH activity in L-CNV eye tissue homogenates (Mus musculus, UniProt P34914); assay: Tissue-based sEH activity assay using trans-stilbene oxide; assay type: biochemical; settings: 20 μM, 3 days post-laser-treatment, trans-stilbene oxide substrate
T2 construct: from tissue; host or cells: mouse eye homogenate (C57BL/6J, L-CNV), 100,000 x g supernatant
T2 sequence (P34914 1-554): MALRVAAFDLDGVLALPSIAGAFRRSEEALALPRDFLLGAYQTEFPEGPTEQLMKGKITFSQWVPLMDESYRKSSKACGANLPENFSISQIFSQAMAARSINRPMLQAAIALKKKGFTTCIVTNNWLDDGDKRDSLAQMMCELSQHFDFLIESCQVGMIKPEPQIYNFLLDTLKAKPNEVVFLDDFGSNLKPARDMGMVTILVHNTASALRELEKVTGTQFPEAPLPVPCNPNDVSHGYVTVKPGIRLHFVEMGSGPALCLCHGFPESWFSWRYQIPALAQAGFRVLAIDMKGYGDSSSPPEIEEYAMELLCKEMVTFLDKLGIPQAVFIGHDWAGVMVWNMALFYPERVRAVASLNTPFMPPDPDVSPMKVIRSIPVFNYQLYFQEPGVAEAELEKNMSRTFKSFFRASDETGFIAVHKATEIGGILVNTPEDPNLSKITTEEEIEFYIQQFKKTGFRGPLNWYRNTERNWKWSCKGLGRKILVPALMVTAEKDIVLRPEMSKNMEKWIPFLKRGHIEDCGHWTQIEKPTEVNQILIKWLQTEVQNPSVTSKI
Method: The sEH activity in tissue homogenates was assayed using trans-stilbene oxide (t-SO) as substrate. The assay is based on the hydrolysis of t-SO that is tracked as a decrease in the absorbance at 230 nm. L-CNV was induced as described above. After 3 days, enucleated eyes from both untreated and L-CNV mice were homogenized in 0.2 M sodium phosphate buffer, pH 7.4. To remove microsomal epoxide hydrolase and lenses, tissue extracts were centrifuged at 100,000×g for 30 minutes at 4° C. After protein estimation, 100 μL of tissue homogenates (100 μg/mL) and 98 μL of SH-11037 or 7 dissolved in DMSO/buffer (final 1% (v/v) DMSO) were added to a UV-transparent 96-well plate. After 5 minutes' incubation at room temperature, 2 μL of t-SO in ethanol (100 μM final concentration) was added to assay wells to initiate the reaction. The absorbance was read at 230 nm for 20 minutes. sEH activity was determined as follows:
sEH Activity=[(A0−A20)−(B0−B20)]/mg of protein in a reaction
Where A0 and A20 are absorbance of test wells read at 230 nm at time 0 and 20 minutes respectively, and B0 and B20 are absorbance of background wells read at 230 nm at time 0 and 20 minutes.

[2] = tested on: choroidal neovascularization; assay: Laser-induced choroidal neovascularization (L-CNV) mouse model, CNV lesion volume; assay type: in vivo; settings: single intravitreal injection, 14 days post-laser, vs vehicle
[3] = tested on: mouse choroidal sprouting; assay: Choroidal sprouting assay (ex vivo); assay type: cell-based; settings: 0.1, 1, 10 μM, 48 hours, vs vehicle
Method: Benzisoxazole sEH inhibitor 7 was synthesized according to the method as described in Shen et al., Bioorg. […] Sprouting of endothelial cells from choroidal layers was tested as described in Sulaiman et al., Sci. Rep. […] The final concentration of DMSO in each well was 0.2% (v/v). Images were taken using an EVOS-fl digital microscope (AMG, Mill Creek, WA, USA) and data were analyzed as the sprouting distance in four different directions using ImageJ software v.1.48v (http://imagej.nih.gov/ij/).

[4] = target: T3, soluble epoxide hydrolase (sEH) (Homo sapiens, UniProt P34913); assay: Recombinant soluble epoxide hydrolase activity assay (fluorogenic substrate PHOME)
T3 sequence (P34913 1-555): T1 sequence (P34913 1-555)
Method: Compounds were dissolved in DMSO (final DMSO concentration=5% (v/v)). Activity was calculated according to:
% Initial Activity=[(FI15−FI0)/(FT15−FT0)]×100%
where FI is the background corrected fluorescence signal obtained in the presence of an inhibitor and FT is the background corrected fluorescence signal obtained for the total activity at times 0 and 15 minutes. IC50 values were calculated using GraphPad Prism v.

sEH = assay: Lipid profiling of retina/choroid in L-CNV mice (19,20-EDP/DHDP ratio as sEH activity in vivo); design: species or system mouse; settings: 10 μM intravitreal, 3 days post-laser, vs vehicle treated controls
Method: The L-CNV mouse model and injections were performed as previously described. […] Compounds where indicated were injected a single time immediately post-laser treatment, delivered intravitreally using a 33-gauge needle, in a 0.5 μL volume. […] Vehicle alone (PBS+0.5% (v/v) DMSO) was used as negative control. […] Eyes were numbed with tetracaine solution before the injection, and triple antibiotic ointment was used immediately after the injection to prevent infection. Lipid Profiling
Mice were sacrificed 3 days post-laser-treatment, eyes were enucleated and retina/choroid layers were immediately separated and stored at −80° C.

[5] = tested on: choroidal neovascularization; settings: cited from earlier work

Ki (human sEH; Dixon plot, n=3) [nM]	SMILES	type of inhibition of sEH (human sEH)	sEH activity in L-CNV eye lysates [1]	CNV lesion vascular volume [2]	ability of choroidal tissues to form sprouts [3]	IC50 [4] [nM]	Ki (human sEH) [nM]	ratio of 19,20-EDP to 19,20-DHDP in retina/choroid (sEH)	combination with anti-VEGF antibody in L-CNV ([5]; WO 2017/091473)	effective doses in L-CNV, intravitreal ([5]; previously shown (Sulaiman et al. 2016; WO 2017/091473)) [µM]
19.6	FC(F)(F)c1ccc(Nc2noc3c(C(F)(F)F)cccc23)cc1 [compound 7, 7-(trifluoromethyl)-N-(4-(trifluoromethyl)phenyl) benzo[d]isoxazol-3-amine, reference compound]	mixed-type inhibitor	normalized	dose-dependently suppressed	suppressed	9.5				
	COc1ccc(CC2COc3cc(OC)c(OC)c(OC)c3C2=O)cc1OC(=O)[C@H](Cc1ccccc1)NC(=O)OC(C)(C)C (stereo partly drawn) [SH-11037, (2S)-2-methoxy-5-((5,6,7-trimethoxy-4-oxochroman-3-yl)methyl)phenyl 2-((tert-butoxycarbonyl)amino)-3-phenylpropanoate]	mixed-type inhibitor	normalized			150	1730 ± 450	partially normalized	synergize	> 1
